From patent US8846316B2, “Biomarker for human liver cancer” (Industrial Technology Research Institute, priority 2012, dated 2014) come the findings set out here.

The subject of this experiment is miR-129-2 expression. Description: miR-129-2 expression by qRT-PCR after 5-aza-cytidine treatment of HCC cells. The class given is cell-based, human. As to conditions: 5 μM 5-azaC for 3 days. In general terms: Quantitative PCR measures a nucleic acid by following its amplification.

Description: Hepatoma cell lines, HepG2, HuH7, J7, Hep3B, Mahlavu and SK-Hep-1 were maintained in Dulbecco's modified Eagle's medium at 37° C. in a humidified, 5% CO2 incubator. Twenty-four hours prior to treatment, HuH7 cells (1×10^5 cells/well) and other hepatoma cells (3×10^5 cells/well) were seeded into 6-well plates. Cells were treated with 5 μM 5-azaC (Sigma) for 3 days. Culture medium was replaced every 24 hours with fresh media containing 5-azaC.
Total RNA of hepatoma cells and HCC clinical samples was extracted using TRIzol reagent (Invitrogen). cDNA synthesis was performed with Superscript III reverse transcriptase according to the manufacturer's instructions (Invitrogen). Real-time quantitative polymerase chain reaction was performed on the ABI Prism 7000 sequence detection System using the SYBR Green PCR master mix (Applied Biosystems). For analysis of mature miRNA expression, TaqMan miRNA assay system (Applied Biosystems) was used as the manufacturer's manual. The relative expression level was analyzed by the ΔΔCt method, and U6 and RNU44 were used as an internal control.
In order to evaluate whether miR-129-2 expression was regulated by DNA methylation, the expression level of miR-129-2 between normal liver cells and HCC cells was examined by quantitative reverse transcription PCR.

`Nc1ncn([C@@H]2O[C@H](CO)[C@@H](O)[C@H]2O)c(=O)n1` [5-aza-cytidine]: the “miR-129-2 expression level elevated compared with untreated cell” value is 2.5 fold (HuH7 cell) and 16 fold (J7 cell).
